Reference: patent US6462086B1, “Non-malignant disease treatment with Ras antagonists” (Ramot University Authority for Applied Research and …, priority 1999, dated 2002)

Columns and labels:
[1] = system: acute experimental autoimmune encephalomyelitis (EAE) in SJL/J mice; experiment: Acute EAE in SJL/J mice, clinical signs; assay type: in vivo, mouse; conditions: compared to controls
Experimental: Induction of acute EAE was based on a modification of Bernard's protocol (13). Briefly, equal volumes of MSCH (10 mg/ml in PBS) and complete Freud's adjuvant (CFA) enriched with Mycobacterium tuberculosis H37Ra (6 mg/ml) (Difco Laboratories, Detroit, Mich.) were homogenized in a blender. For each mouse, 0.1 ml (0.5 mg) of the emulsion were injected s.c. into the four footpads. Immediately thereafter and 2 days later, mice were injected i.v. with Bordetella pertussis (2.7×10^9 organisms per mouse) (Rafa Laboratories, Jerusalem, Israel). Animals were examined daily for signs of disease. The first clinical signs appeared on day 10-12 post immunization and were scored according to the following six point scale: 0: no abnormality; 1: mild tail weakness (floppy tail); 2: tail paralysis; 3: tail paralysis and hind leg paresis; 4: hind leg paralysis or mild forelimb weakness; 5: quadriplegia or moribund state; 6: death.
FTS (as powder) was diluted in chloroform (35.8 mg/ml of FTS=0.1 M) and kept in aliquods. The content (25 μl) of one aliquod was evaporated under nitrogen and then disolved in 6 μl absolute ethanol and 7 μl of 1N NaOH; 890 μl of PBS were subsequently added. Each mouse received 0.1 ml of this solution daily (0.1 mg/mouse or 5 mg/kg) intraperitoneally (i.p.).

[2] = system: EAN in Lewis rats; experiment: Experimental autoimmune neuritis (EAN) in Lewis rats, clinical score and rotarod; assay type: in vivo, rat
[3] = system: MRL/lpr mice; experiment: Open field test in MRL mice; assay type: in vivo, mouse; conditions: 20 minutes
Experimental: Saline-treated and FTS-treated MRL/lpr and saline-treated MRL/++ mice (n=5), were tested for spatial behavior in a novel environment in an open field. The apparatus comprised of a circular pool (120 cm diameter by 50 cm high) placed in a lighted room. The test was conducted during the light phase of day-night cycle. The mice were brought to the experimental room 1 hour before testing. Each mouse was removed gently from its cage, placed individually at the center of the field, and videotaped with a camcorder for 20 minutes. At the end of each session the pool was cleaned with paper towels moistened with ammonium glass cleaner to remove urinary trails. The frequency and duration of progression or stopping in the open field was analyzed during playback of the video records by software custom-written by Dr. David Eilam (Life Sciences Department, Tel-Aviv University). Total distance traveled, locomotion time, speed of moving, spatial distribution of explorations and latency for establishing a home base, and duration of staying there, were extracted.

[4] = Distribution of 3H-FTS in plasma and liver; assay type: in vivo, rat; conditions: 5 mg/Kg
Experimental: For each set of experiments, FTS was prepared in chloroform (0.1 M stock solution) and maintained at −70° C. The chloroform was removed from the stock solution by a stream of nitrogen prior to use, and FTS was then dissolved either in DMSO (in vitro experiments) or in ethanol (in vivo experiments). The FTS/DMSO solutions were diluted with DMEM/10% fetal calf serum (FCS) to yield a 100×drug stock solution containing 10% DMSO. A portion of this solution was applied to the cells at a dilution of 1:100. The FTS/ethanol solution was alkalinized by the addition of 1N NaOH, then diluted with phosphate-buffered saline (PBS) to obtain a solution of 1.0 mg FTS/ml (pH 8.0, 0.5% ethanol). This solution (1-1.5 ml per rat) was used in the in vivo experiments. In a separate set of experiments, the distribution of FTS in the plasma and in the liver was assayed by the use of 3H -FTS (12.5 ci/mmole, ARC, St. Louis Mo.). […] The estimated concentration FTS in the liver at peak times (20 to 60 min) was 29 μM. Drug levels in the liver declined thereafter to the level of 0.5 μM at 24 h.

[5] = system: Wistar rats; assay type: in vivo
Experimental: The FTS was dissolved in PBS and administered i.p. 3 times a week to rats according to their assigned groups. Four groups containing 6 rats each were treated as follows. One group received TAA 200 mg/kg i.p. twice a week and i.p. injections of PBS 3 days a week for 12 weeks (cirrhotic controls for the FTS-treated groups). A second group received TAA for 12 weeks and FTS 5 mg/kg, 3 times a week. […] The two control groups consisted of one that received PBS injections without TAA for 12 weeks (normal controls) and a group of 5 rats that received only FTS 5 mg/kg i.p. for 12 weeks to monitor the appearance of adverse effects.
In order to monitor the presence of adverse effects caused by the prolonged administration of FTS, a control group received the Ras antagonist for 12 weeks.

[6] = Solubility in water and saline; assay type: physicochemical
Description: In these formulations, the alkyl gallate, etc., is present in an amount of from 0.02% to about 0.05%, and the citric or phosphoric acid is present in an amount of about 0.01%. These formulations are suitable for parenteral administraiton.
In one embodiment of the present invention, both of these shortcomings are overcome by formulating the agent in cyclodextrin. This technology is the subject of U.S. Pat. Nos. 5,681,828 and 5,935,941. Cyclodextrins are a group of compounds consisting of, or derived from, the three parent cyclodextrins—alpha-, beta- and gamma-cyclodextrins. Alpha-, beta- and gamma-cyclodextrins are simple oligosaccharides consisting of six, seven or eight anhydroglucose residues, respectively, connected to macrocyles by alpha (1 to 4) glycosidic bonds. Each of the glucose residues of a cyclodextrin contains one primary (O6) and two secondary hydroxyls (O2 and O3) which can be substituted, for example, methylated. Many cyclodextrin preparations in practical use are mixtures of chemically individual derivatives in which only a part of hydroxy groups were substituted and which differ in number and position of these substituents.

[7] = FTS 5 mg/kg/day i.p. days 0-10 only

## CC(C)=CCC/C(C)=C/CC/C(C)=C/CSc1ccccc1C(=O)O [FTS, farnesyl thiosalicylic acid]
[1]
  clinical course of EAE (FIG. 1): significantly ameliorated
[2]; [7]
  recovery: recovered faster than the other groups
  severity of disease: equal severity to controls
[2]; FTS 5 mg/kg/day i.p. days 0-28
  clinical score / rotarod, peak of disease: significantly ameliorated the peak of disease
[2]; FTS days 0-10 only
  rats with brief relapses of clinical signs during recovery: Three of the 5 rats
[2]; treatment from day 10
  recovery: recovered significantly faster
[2]; treatment from day 10, ±SE, n=10, control 4.12±0.61
  Mean clinical scores for days 15-19: 2.74±0.66
[3]
  open field: time spent in the center: significant effect on the time spent in the center
  open field: total distance covered: no effect on the total distance covered
[4]
  estimated concentration of FTS in the liver at peak times: 29 µM
  peak liver levels, % of the injected dose: 1.75%
  peak plasma levels, % of the injected dose: 10.7%
  peak times in the liver: 20 to 60 min
[4]; Wistar, rat, liver, other: injected (type of injection not given), read-out: drug level in the liver at 24 h
  concentration at 24 h: 500 nM
[5]; FTS 5 mg/kg alone for 12 weeks
  mortality and adverse effects: no mortality or major adverse effects
[5]; TAA+FTS, n=6
  survival after 12 weeks: none of the rats died
[6]
  solubility in water / saline: insoluble in water
